The values below are quoted from earlier work in patent publication US20080200520A1, “Iron Modulators” (BTG INTERNATIONAL LIMITED, priority 2005, published 2008).

For data set [1] the following is noted: comparative compounds, commercial lots.
For data set [2] the following is noted: comparative compounds, commercial lots; solvent in which soluble.
The conditions of data set [3]: comparative compounds, commercial lots. This is another data set of the same source.
For the next data set, the system named is mice. The note with it: oral treatment.

Molecules are shown by their SMILES. Structures can show the parent of a compound that is named as a salt.

Turning to `CC(=O)N(O)CCCCCNC(=O)CCC(=O)N(O)CCCCCNC(=O)CCC(=O)N(O)CCCCCN` [Desferrioxamine Mesylate], in data set [1], the “Potential Hazards” value is on record as “none”. Also, in data set [2], the Solubility result is on record as “water”. The Stability entry in data set [3] is “stable”.
On to `Cc1c(O)c(=O)ccn1C` [Deferiprone], for which, in data set [2], the Solubility entry is reported as “water”. Besides, the Stability result in data set [3] is listed as “stable”.
Consider `Oc1c(I)cc(Cl)c2cccnc12` [Clioquinol], for which the “Potential Hazards” value in data set [1] was “harmful. Sensitisation by inhalation and skin contact. Causes severe irritation. Readily absorbed through skin. Target organs: eyes and nerves”. For the same molecule, the Solubility entry in data set [2] was “DMSO”. Further, the “protection from the effects of MPTP” value in the data set on mice is given as “protect mice from the effects of MPTP”. Also, the Stability entry in data set [3] was “stable”.
